The nature of data set [1]: Inhibition of HCV GT1b NS5B polymerase. More on the design: species or system Hepacivirus hominis.
A short description of data set [2]: Inhibition of wild type HCV GT1b NS5B polymerase. More on the design: species or system Hepacivirus hominis.
Data set [3] concerns the target RNA-directed RNA polymerase (Hepacivirus hominis, UniProt O39930, L419M). The data set can be described thus: Inhibition of HCV NS5B polymerase L419M mutant.
In data set [4] the target is RNA-directed RNA polymerase (Hepacivirus hominis, UniProt O39930, M414T). The experiment in a line: Inhibition of HCV NS5B polymerase M414T mutant.
Chain of RNA-directed RNA polymerase (Hepacivirus hominis, UniProt O39930, M414T) (O39930 entry or part of it M414T): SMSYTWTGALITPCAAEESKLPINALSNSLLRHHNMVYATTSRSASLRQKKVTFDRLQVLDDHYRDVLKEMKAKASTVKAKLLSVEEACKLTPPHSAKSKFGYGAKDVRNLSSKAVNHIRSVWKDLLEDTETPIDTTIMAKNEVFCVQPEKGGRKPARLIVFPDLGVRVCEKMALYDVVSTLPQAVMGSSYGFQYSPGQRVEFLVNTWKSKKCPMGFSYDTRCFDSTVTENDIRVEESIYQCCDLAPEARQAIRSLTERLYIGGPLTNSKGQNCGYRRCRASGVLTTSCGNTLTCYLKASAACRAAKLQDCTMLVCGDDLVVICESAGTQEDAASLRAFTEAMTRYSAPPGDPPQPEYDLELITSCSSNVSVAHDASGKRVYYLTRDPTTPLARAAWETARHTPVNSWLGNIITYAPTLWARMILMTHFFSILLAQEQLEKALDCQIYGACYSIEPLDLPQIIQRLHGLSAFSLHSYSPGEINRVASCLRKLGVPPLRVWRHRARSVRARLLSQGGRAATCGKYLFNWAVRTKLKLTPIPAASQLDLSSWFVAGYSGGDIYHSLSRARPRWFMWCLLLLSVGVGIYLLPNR
Another data set relates to Hepatitis C virus. The data set can be described thus: Antiviral activity against […] Con1 GT1b infected in HuH7 cells by replicon assay. Format: functional, Hepacivirus hominis. Particulars: Huh-7. Background: In antiviral work, replicon cells carry a viral genome segment that copies itself.
A short description of data set [5]: Cytotoxicity against human HuH7 cells by WST-1 assay. Format: cell-based, Huh-7.

Chain of RNA-directed RNA polymerase (Hepacivirus hominis, UniProt O39930, L419M) (O39930 entry or part of it L419M): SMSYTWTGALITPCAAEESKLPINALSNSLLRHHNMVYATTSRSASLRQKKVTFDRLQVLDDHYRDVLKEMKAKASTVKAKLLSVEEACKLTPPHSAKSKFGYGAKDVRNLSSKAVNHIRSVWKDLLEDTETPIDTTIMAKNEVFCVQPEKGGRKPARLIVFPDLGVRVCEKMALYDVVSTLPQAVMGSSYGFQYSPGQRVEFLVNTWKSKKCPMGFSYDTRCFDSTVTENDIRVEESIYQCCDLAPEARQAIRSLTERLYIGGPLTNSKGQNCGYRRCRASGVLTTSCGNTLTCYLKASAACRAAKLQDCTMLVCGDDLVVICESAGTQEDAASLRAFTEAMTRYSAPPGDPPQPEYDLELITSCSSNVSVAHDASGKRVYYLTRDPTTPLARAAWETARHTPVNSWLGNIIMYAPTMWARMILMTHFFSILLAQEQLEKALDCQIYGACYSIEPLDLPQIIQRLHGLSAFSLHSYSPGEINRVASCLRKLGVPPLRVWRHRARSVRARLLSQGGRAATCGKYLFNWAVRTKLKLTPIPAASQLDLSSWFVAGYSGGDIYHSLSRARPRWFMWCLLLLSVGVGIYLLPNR

In general, IC50 refers to the concentration that gives 50% inhibition. A high value points to weaker potency in that assay. For orientation: Kd means the concentration at which binding is half-saturated. In general, EC50 refers to the concentration that produces a half-maximal response. A lower EC50 goes with higher potency in that assay. As usually defined, the CC50 is the concentration that lowers cell viability or growth by half. In data set [1], `C[C@H]1CC[C@H](n2nncc2-c2cc(-c3ccccc3)sc2C(=O)O)CC1` showed an IC50 of 100 nM. Moreover, the results for the dissociation constant (Kd) in data set [2], in data set [3] and in data set [4] were 860 nM, 4480 nM and 597 nM, respectively. In the data set with Hepatitis C virus, this compound yielded an EC50 of 15000 nM. This compound also displayed a cytotoxic concentration (CC50) in data set [5] greater than 50000 nM. `CC(C)N(c1cc(-c2ccccc2)sc1C(=O)O)C(=O)[C@H]1CC[C@H](C)CC1`: the IC50 in data set [1] is 28 nM. Besides, the figures for the Kd in data set [2], in data set [3] and in data set [4] were 41 nM, 427 nM and 33 nM, respectively. Further, the EC50 in the data set with Hepatitis C virus was 230 nM. In data set [5], this compound had a CC50 of 48000 nM. For the compound `O=C(O)c1sc(-c2ccccc2)cc1-c1conc1C1CCCCC1`, the half-maximal inhibitory concentration (IC50) in data set [1] is 74 nM.

`O=C(O)c1sc(-c2ccccc2)cc1-c1cnnn1C1CCCCC1` registered a concentration for half-maximal inhibition (IC50) in data set [1] of 340 nM. Still for that read-out and setting: to `O=C(O)c1sc(-c2ccccc2)cc1-c1cc(=O)[nH]nc1-c1ccccc1` belongs 92000 nM; to `C[C@H]1CC[C@H](c2nocc2-c2cc(-c3ccccc3)sc2C(=O)O)CC1`, 110 nM. `Cc1ccc(-n2nncc2-c2cc(-c3ccccc3)sc2C(=O)O)cc1` gave an IC50 in data set [1] of 110 nM. The Kd in data set [2] was 4320 nM; in data set [3] it was 23100 nM; in data set [4], 3990 nM. The compound also displayed an EC50 in the data set on Hepatitis C virus greater than 30000 nM. The same compound came in with a CC50 in data set [5] greater than 30000 nM.

`Cc1ccc(-c2cc(=O)[nH]nc2-c2cc(-c3ccccc3)sc2C(=O)O)cc1` yielded an IC50 in data set [1] of 3300 nM. With `O=C(O)c1sc(-c2ccccc2)cc1-c1cnnn1-c1ccccc1`, the IC50 in data set [1] is 17000 nM.

For the compound `C[C@H]1CC[C@H](c2ncccc2-c2cc(-c3ccccc3)sc2C(=O)O)CC1`, the IC50 in data set [1] stood at 22 nM. Same read-out and setting: to `Cc1ccc(-c2nocc2-c2cc(-c3ccccc3)sc2C(=O)O)cc1` belongs 2500 nM. Turning to `C[C@H]1CC[C@H](c2ccccc2-c2cc(-c3ccccc3)sc2C(=O)O)CC1`, 42 nM corresponded to half-maximal inhibition in data set [1] (IC50). The same compound had an EC50 in the data set on Hepatitis C virus of 12000 nM. For the same compound, it took 20000 nM to reach half-maximal cytotoxicity in data set [5] (CC50). Take `O=C(O)c1sc(-c2ccccc2)cc1-c1conc1-c1ccccc1`: the IC50 in data set [1] was determined as 29000 nM. Still for that read-out and setting: with `O=C(O)c1sc(-c2ccccc2)cc1-c1conc1-c1ccc(Cl)cc1` the figure was 2600 nM; with `C[C@H]1CC[C@H](c2cc(-c3cc(-c4ccccc4)sc3C(=O)O)on2)CC1`, 32000 nM; with `Cc1ccc(-c2cc(=O)[nH]n2-c2cc(-c3ccccc3)sc2C(=O)O)cc1`, 620 nM. Still for that read-out and setting: to `O=C(O)c1sc(-c2ccccc2)cc1-c1conc1-c1ccc(F)cc1` belongs 5700 nM; to `CC1CCC(=Cc2ncccc2-c2cc(-c3ccccc3)sc2C(=O)O)CC1` (stereo unspecified), 170 nM; to `CCCCOc1ccccc1-c1cc(-c2ccccc2)sc1C(=O)O`, 16000 nM.

Values taken from ChEMBL document CHEMBL1208715, “Cyclic amide bioisosterism: strategic application to the design and synthesis of HCV NS5B polymerase inhibitors” (Bioorg Med Chem Lett, 2010).
